Among the data in ChEMBL document CHEMBL4043100, “Antitrichomonal activity of δ opioid receptor antagonists, 7-benzylidenenaltrexone derivatives” (Bioorg Med Chem, 2017) are MIC, IC50 and Ki values, retold here.

As a reminder, the MIC is the lowest concentration found to suppress growth. As usually defined, the IC50 is the concentration that inhibits the measured activity by half. A lower IC50 goes with higher potency. In general, Ki refers to a measure of affinity in units of concentration, obtained from inhibition or displacement.

One assay deals with Trichomonas vaginalis. The experiment in a line: Antimicrobial activity against Trichomonas vaginalis after 48 hrs by neutral red staining based invert microscopic analysis. It counts as functional.
The target in a further assay is Mu-type opioid receptor (Homo sapiens, UniProt P35372). Kind of assay: Displacement of [3H]DAMGO from human mu opioid receptor expressed in CHO cell membranes by microbeta scintillation counting analysis. On the technique in general: Loss of bound radioactivity is the signal in a displacement assay; it reports binding, not function.
In assay [1] the target is Delta-type opioid receptor (Homo sapiens, UniProt P41143). Kind of assay: Displacement of [3H]DPDPE from human delta opioid receptor expressed in CHO cell membranes by microbeta scintillation counting analysis.
For assay [2], the target named is Kappa-type opioid receptor (Homo sapiens, UniProt P41145). The experiment in a line: Displacement of [3H]U-69,593 from human kappa opioid receptor expressed in CHO cell membranes by microbeta scintillation counting analysis.
Assay [3] is described as follows: Antimicrobial activity against Tritrichomonas mobilensis after 48 hrs by neutral red staining based invert microscopic analysis. The class given is functional.

Values after ≈ are worked out from the molar mass of the structure shown.

Kappa-type opioid receptor, sequence (P41145 whole entry): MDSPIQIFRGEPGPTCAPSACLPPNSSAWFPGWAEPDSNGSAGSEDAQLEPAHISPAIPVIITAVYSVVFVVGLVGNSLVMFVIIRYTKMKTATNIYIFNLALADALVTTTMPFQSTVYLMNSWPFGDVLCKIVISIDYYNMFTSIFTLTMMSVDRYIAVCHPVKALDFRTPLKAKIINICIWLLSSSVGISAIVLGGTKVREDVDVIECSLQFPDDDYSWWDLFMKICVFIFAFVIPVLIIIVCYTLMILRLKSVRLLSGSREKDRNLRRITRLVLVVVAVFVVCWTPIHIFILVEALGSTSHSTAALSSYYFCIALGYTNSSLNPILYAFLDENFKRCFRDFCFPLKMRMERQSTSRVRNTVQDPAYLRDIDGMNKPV
Delta-type opioid receptor, sequence (P41143 whole entry): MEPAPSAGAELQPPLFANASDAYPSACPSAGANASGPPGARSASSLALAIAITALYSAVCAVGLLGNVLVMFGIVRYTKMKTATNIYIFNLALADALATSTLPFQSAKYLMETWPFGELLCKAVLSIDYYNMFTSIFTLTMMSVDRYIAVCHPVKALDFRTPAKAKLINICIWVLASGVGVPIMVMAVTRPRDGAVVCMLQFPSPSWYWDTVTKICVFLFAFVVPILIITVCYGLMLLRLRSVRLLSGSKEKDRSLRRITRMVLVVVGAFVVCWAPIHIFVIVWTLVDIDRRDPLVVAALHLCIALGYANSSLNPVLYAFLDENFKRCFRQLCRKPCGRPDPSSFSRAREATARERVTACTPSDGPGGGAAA
Mu-type opioid receptor, sequence (P35372 whole entry): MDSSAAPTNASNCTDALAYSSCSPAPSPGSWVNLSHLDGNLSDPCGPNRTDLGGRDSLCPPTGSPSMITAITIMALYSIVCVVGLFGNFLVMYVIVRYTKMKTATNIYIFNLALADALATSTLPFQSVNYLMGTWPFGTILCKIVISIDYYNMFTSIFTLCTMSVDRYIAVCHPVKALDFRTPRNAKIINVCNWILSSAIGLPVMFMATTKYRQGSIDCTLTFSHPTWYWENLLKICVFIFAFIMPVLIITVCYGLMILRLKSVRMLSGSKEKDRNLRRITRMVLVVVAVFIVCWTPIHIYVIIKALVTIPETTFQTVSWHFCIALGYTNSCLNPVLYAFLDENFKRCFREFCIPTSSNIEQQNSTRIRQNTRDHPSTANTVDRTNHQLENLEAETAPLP

`CN1CC[C@]23Cc4nc5ccccc5cc4C[C@@]2(O)[C@H]1Cc1ccc(O)cc13` showed an MIC against Trichomonas vaginalis of 80 µM (≈ 29.8 µg/mL).
On to `O=C1/C(=C/c2ccc(F)cc2)C[C@@]2(O)[C@H]3Cc4ccc(O)c5c4[C@@]2(CCN3CC2CC2)[C@H]1O5`, for which the IC50 in the assay on Trichomonas vaginalis turned out to be 12800 nM. In the assay with Trichomonas vaginalis, the MIC came to 20 µM (≈ 8.95 µg/mL). Further, the Ki worked out at 20.9 nM at Mu-type opioid receptor (read-out: Ki), 34.5 nM in assay [1] (read-out: Ki) and 108 nM in assay [2] (read-out: Ki).
With `COc1ccc(/C=C2\C[C@@]3(O)[C@H]4Cc5ccc(O)c6c5[C@@]3(CCN4CC3CC3)[C@@H](O6)C2=O)cc1`, half-maximal inhibition in the assay on Trichomonas vaginalis (IC50) required 14100 nM. Inhibition of growth against Trichomonas vaginalis (MIC) required 20 µM (≈ 9.19 µg/mL). In addition, the Ki turned out to be 5.16 nM at Mu-type opioid receptor (read-out: Ki), 1.8 nM in assay [1] (read-out: Ki) and 27.8 nM in assay [2] (read-out: Ki).
Compound `CC1(C)SSC(C)(C)[C@H](NC(=O)[C@@H](N)Cc2ccc(O)cc2)C(=O)NCC(=O)N[C@@H](Cc2ccccc2)C(=O)N[C@@H]1C(=O)O` had an MIC against Trichomonas vaginalis above 320 µM.
Turning to `CN(C)c1ccc(/C=C2\C[C@@]3(O)[C@H]4Cc5ccc(O)c6c5[C@@]3(CCN4CC3CC3)[C@@H](O6)C2=O)cc1`, in the assay on Trichomonas vaginalis, 13200 nM corresponded to half-maximal inhibition (IC50). The same compound displayed an MIC against Trichomonas vaginalis of 20 µM (≈ 9.45 µg/mL). Also, the Ki was determined as 17.2 nM on Mu-type opioid receptor (read-out: Ki), 3.72 nM in assay [1] (read-out: Ki) and 28.6 nM in assay [2] (read-out: Ki).
`O=C1C(Cc2ccccc2)C[C@@]2(O)[C@H]3Cc4ccc(O)c5c4[C@@]2(CCN3CC2CC2)[C@H]1O5` (some centres not stated) came in with a minimum inhibitory concentration (MIC) against Trichomonas vaginalis of 80 µM (≈ 34.5 µg/mL).
Consider `O=C1/C(=C/c2ccc(C(F)(F)F)cc2)C[C@@]2(O)[C@H]3Cc4ccc(O)c5c4[C@@]2(CCN3CC2CC2)[C@H]1O5`, for which the IC50 in the assay with Trichomonas vaginalis turned out to be 13700 nM. The compound further gave an MIC against Trichomonas vaginalis of 20 µM (≈ 9.95 µg/mL). In addition, the Ki on Mu-type opioid receptor (read-out: Ki) stood at 192 nM; in assay [1] (read-out: Ki), 83.9 nM; in assay [2] (read-out: Ki) it was 176 nM.
For the compound `O=C1/C(=C/c2ccccc2Cl)C[C@@]2(O)[C@H]3Cc4ccc(O)c5c4[C@@]2(CCN3CC2CC2)[C@H]1O5`, the MIC with Trichomonas vaginalis was above 320 µM.
In the assay with Trichomonas vaginalis, `O=C1/C(=C/c2cccs2)C[C@@]2(O)[C@H]3Cc4ccc(O)c5c4[C@@]2(CCN3CC2CC2)[C@H]1O5` showed an IC50 of 21600 nM and a minimum inhibitory concentration (MIC) of 40 µM (≈ 17.4 µg/mL).
On to `O=C1C(Cc2ccc(F)cc2)C[C@@]2(O)[C@H]3Cc4ccc(O)c5c4[C@@]2(CCN3CC2CC2)[C@H]1O5` (some centres not stated), for which the MIC against Trichomonas vaginalis was above 320 µM.
Take `COc1ccc(/C=C2\C[C@@]3(O)[C@H]4Cc5ccc(OC)c6c5[C@@]3(CCN4CC3CC3)[C@@H](O6)C2=O)cc1`: in the assay with Trichomonas vaginalis, 80 µM (≈ 37.9 µg/mL) was the least that counted as inhibitory (MIC).
As for `O=C1/C(=C/c2ccc(Cl)cc2)C[C@@]2(O)[C@H]3Cc4ccc(O)c5c4[C@@]2(CCN3CC2CC2)[C@H]1O5`, the IC50 with Trichomonas vaginalis came to 12700 nM. The same compound gave an MIC in the assay on Trichomonas vaginalis of 20 µM (≈ 9.28 µg/mL). For the same compound, the results for the Ki (on Mu-type opioid receptor (read-out: Ki); in assay [1] (read-out: Ki); in assay [2] (read-out: Ki)) were 6.13 nM, 8.22 nM and 78.6 nM, respectively.
For `O=C1/C(=C/c2ccc(Br)cc2)C[C@@]2(O)[C@H]3Cc4ccc(O)c5c4[C@@]2(CCN3CC2CC2)[C@H]1O5`, in that order: 11200 nM, 20 µM (≈ 10.2 µg/mL), 5.04 nM, 4.19 nM and 70.4 nM.
As for `O=C1/C(=C/c2ccccc2Br)C[C@@]2(O)[C@H]3Cc4ccc(O)c5c4[C@@]2(CCN3CC2CC2)[C@H]1O5`, the MIC in the assay on Trichomonas vaginalis amounted to 80 µM (≈ 40.7 µg/mL). That is a double-digit micromolar value.
The same measure, in the same setting: the figure for `O=C1/C(=C/c2cccc(C(F)(F)F)c2)C[C@@]2(O)[C@H]3Cc4ccc(O)c5c4[C@@]2(CCN3CC2CC2)[C@H]1O5` is 80 µM (≈ 39.8 µg/mL).
Still for that read-out and setting: for `O=C1/C(=C/c2ccccc2C(F)(F)F)C[C@@]2(O)[C@H]3Cc4ccc(O)c5c4[C@@]2(CCN3CC2CC2)[C@H]1O5` the value was 80 µM (≈ 39.8 µg/mL).
Compound `O=C1/C(=C/c2cccc(F)c2)C[C@@]2(O)[C@H]3Cc4ccc(O)c5c4[C@@]2(CCN3CC2CC2)[C@H]1O5` gave an IC50 in the assay with Trichomonas vaginalis of 14200 nM. This compound came in with a minimum inhibitory concentration (MIC) in the assay on Trichomonas vaginalis of 20 µM (≈ 8.95 µg/mL). In addition, the Ki was 10.7 nM on Mu-type opioid receptor (read-out: Ki), 8.37 nM in assay [1] (read-out: Ki) and 49 nM in assay [2] (read-out: Ki).
`COc1ccc2c3c1O[C@H]1C(=O)/C(=C/c4ccc(F)cc4)C[C@@]4(O)[C@@H](C2)N(CC2CC2)CC[C@]314`: the lowest concentration to inhibit growth in the assay on Trichomonas vaginalis (MIC) was 80 µM (≈ 36.9 µg/mL). This lies in the double-digit micromolar range.
On the same count and under the same terms, for `O=C1/C(=C/c2c(Cl)cccc2Cl)C[C@@]2(O)[C@H]3Cc4ccc(O)c5c4[C@@]2(CCN3CC2CC2)[C@H]1O5` the value was above 320 µM; for `COc1cccc(/C=C2\C[C@@]3(O)[C@H]4Cc5ccc(O)c6c5[C@@]3(CCN4CC3CC3)[C@@H](O6)C2=O)c1`, 80 µM (≈ 36.8 µg/mL).
As for `N#Cc1ccc(/C=C2\C[C@@]3(O)[C@H]4Cc5ccc(O)c6c5[C@@]3(CCN4CC3CC3)[C@@H](O6)C2=O)cc1`, the IC50 in the assay with Trichomonas vaginalis was determined as 13200 nM. Moreover, in the assay on Trichomonas vaginalis, the MIC worked out at 20 µM (≈ 9.09 µg/mL). Also, the Ki at Mu-type opioid receptor (read-out: Ki) is 32.7 nM; in assay [1] (read-out: Ki), 18.1 nM; in assay [2] (read-out: Ki) it was 209 nM.
Regarding `COc1ccccc1/C=C1\C[C@@]2(O)[C@H]3Cc4ccc(O)c5c4[C@@]2(CCN3CC2CC2)[C@@H](O5)C1=O`, the MIC in the assay with Trichomonas vaginalis was above 320 µM.
`COc1ccc(CC2C[C@@]3(O)[C@H]4Cc5ccc(O)c6c5[C@@]3(CCN4CC3CC3)[C@@H](O6)C2=O)cc1` (some centres not stated) returned an MIC against Trichomonas vaginalis above 320 µM.
`COc1ccc2c3c1O[C@H]1C(=O)/C(=C/c4ccccc4)C[C@@]4(O)[C@@H](C2)N(CC2CC2)CC[C@]314` showed an MIC against Trichomonas vaginalis of 80 µM (≈ 35.5 µg/mL). Also, the values for the Ki (at Mu-type opioid receptor (read-out: Ki); in assay [1] (read-out: Ki); in assay [2] (read-out: Ki)) were 499 nM, 100 nM and above 1000 nM, respectively.
On to `O=C1/C(=C/c2ccc(I)cc2)C[C@@]2(O)[C@H]3Cc4ccc(O)c5c4[C@@]2(CCN3CC2CC2)[C@H]1O5`, for which, in the assay with Trichomonas vaginalis, the midpoint of inhibition, the IC50, lay at 10500 nM. The MIC in the assay with Trichomonas vaginalis is 20 µM (≈ 11.1 µg/mL); in assay [3], above 320 µM. For the same compound, the inhibition constant (Ki) at Mu-type opioid receptor (read-out: Ki) was determined as 19.9 nM; in assay [1] (read-out: Ki), 2.15 nM; in assay [2] (read-out: Ki), 126 nM.
In the case of `O=C1/C(=C/c2ccco2)C[C@@]2(O)[C@H]3Cc4ccc(O)c5c4[C@@]2(CCN3CC2CC2)[C@H]1O5`, the lowest concentration to inhibit growth against Trichomonas vaginalis (MIC) was 160 µM (≈ 67.1 µg/mL).
In the assay on Trichomonas vaginalis, `N#Cc1cccc(/C=C2\C[C@@]3(O)[C@H]4Cc5ccc(O)c6c5[C@@]3(CCN4CC3CC3)[C@@H](O6)C2=O)c1` displayed a half-maximal inhibitory concentration (IC50) of 18000 nM and an MIC of 40 µM (≈ 18.2 µg/mL).
On to `COc1ccc2c3c1O[C@H]1C(=O)C(Cc4ccccc4)C[C@@]4(O)[C@@H](C2)N(CC2CC2)CC[C@]314` (some centres not stated), for which the MIC in the assay on Trichomonas vaginalis is above 320 µM.
Consider `O=C1/C(=C/c2ccnc3ccccc23)C[C@@]2(O)[C@H]3Cc4ccc(O)c5c4[C@@]2(CCN3CC2CC2)[C@H]1O5`, for which, in the assay with Trichomonas vaginalis, the half-maximal inhibitory concentration (IC50) is 17200 nM and the MIC was 40 µM (≈ 19.2 µg/mL).
Compound `O=C1/C(=C/c2ccccc2F)C[C@@]2(O)[C@H]3Cc4ccc(O)c5c4[C@@]2(CCN3CC2CC2)[C@H]1O5` gave an IC50 in the assay on Trichomonas vaginalis of 18600 nM. The compound also came in with an MIC in the assay on Trichomonas vaginalis of 20 µM (≈ 8.95 µg/mL). Besides, the Ki on Mu-type opioid receptor (read-out: Ki) worked out at 12.8 nM; in assay [1] (read-out: Ki), 2.94 nM; in assay [2] (read-out: Ki), 35.1 nM.
In turn, `COC(=O)/C=C/C(=O)N[C@@H]1CC[C@@]2(O)[C@H]3Cc4ccc(O)c5c4[C@@]2(CCN3CC2CC2)[C@H]1O5` yielded an MIC against Trichomonas vaginalis of 80 µM (≈ 36.4 µg/mL).
In the case of `O=C1/C(=C/c2ccccc2)C[C@@]2(O)[C@H]3Cc4ccc(O)c5c4[C@@]2(CCN3CC2CC2)[C@H]1O5` [BNTX], inhibition in the assay with Trichomonas vaginalis was half-maximal at 21700 nM (IC50). For the same compound, the values for the MIC (against Trichomonas vaginalis; in assay [3]) were 40 µM (≈ 17.2 µg/mL) and above 320 µM, respectively. In addition, the Ki at Mu-type opioid receptor (read-out: Ki) turned out to be 11 nM; in assay [1] (read-out: Ki), 2.81 nM; in assay [2] (read-out: Ki), 32.8 nM.
In the assay with Trichomonas vaginalis, `Cc1ncc([N+](=O)[O-])n1CCO` [METRONIDAZOLE] had an IC50 of 5200 nM. Also, the MIC in the assay with Trichomonas vaginalis was 10 µM (≈ 1.71 µg/mL); in assay [3], 2.5 µM (≈ 0.428 µg/mL). Besides, the Ki result (at Mu-type opioid receptor; in assay [1]; in assay [2]) was “Not Active” in each case.
The compound `CN(C(=O)/C=C/c1ccoc1)[C@@H]1CC[C@@]2(O)[C@H]3Cc4ccc(O)c5c4[C@@]2(CCN3CC2CC2)[C@H]1O5` [NALFURAFINE] gave an MIC with Trichomonas vaginalis of 80 µM (≈ 38.1 µg/mL).
On the same count and under the same terms, the figure for `O=C1CC[C@@]2(O)[C@H]3Cc4ccc(O)c5c4[C@@]2(CCN3CC2CC2)[C@H]1O5` [NALTREXONE] is 80 µM (≈ 27.3 µg/mL); for `Oc1ccc2c3c1O[C@H]1c4oc5ccccc5c4C[C@@]4(O)[C@@H](C2)N(CC2CC2)CC[C@]314` [NALTRIBEN] it is 80 µM (≈ 33.2 µg/mL); for `Oc1ccc2c3c1O[C@H]1c4[nH]c5ccccc5c4C[C@@]4(O)[C@@H](C2)N(CC2CC2)CC[C@]314` [NALTRINDOLE] it is 80 µM (≈ 33.2 µg/mL).
Same read-out and setting: the figure for `Oc1ccc2c3c1O[C@H]1c4[nH]c5c(c4C[C@@]4(O)[C@@H](C2)N(CC2CC2)CC[C@]314)C[C@@]1(O)[C@H]2Cc3ccc(O)c4c3[C@@]1(CCN2CC1CC1)[C@H]5O4` [NORBINALTORPHIMINE] is above 320 µM; for `C=CCN1C[C@H](C)N([C@H](c2ccc(C(=O)N(CC)CC)cc2)c2cccc(OC)c2)C[C@H]1C` [SNC-80] it is above 320 µM; for H-AFEVVG-NH2 it is above 320 µM.
